Consider 1 compound from patent publication US7090863B2, “Hypocholesterolemic composition and methods of use” (Inpharma S.A., priority 2001, dated 2006).

This experiment deals with normocholesterolemic healthy male subjects. The experiment is described as follows: Example 1 first phase: plasma lipoprotein variations after 15 days of soy bean proteins, β-sitosterol or their combination. It is filed as in vivo, human. The note with it: in rapport to post-seven days of stabilisation diet values. An excerpt: For the first phase, 18 normocholesterolemic healthy male subjects (mean age: 32.5±8 years) have been enrolled. All subjects followed a stabilisation diet period of seven days during which they received some advises concerning their nourishment (according to the American Heart Association recommends), without any radical modification of their diet customs. A dietician monitored the patient dietary pattern trough the “Seven days questionnaire” for all the experimental duration. Patients were imposed to stop any nutritional supplementation. After this period, all subjects ingested for fifteen days 400 mg β-sitosterol two times/day (6 subjects), 1600 mg soy bean proteins two times/day (6 subjects) or a low dosage product containing soy proteins supplemented in β-sitosterol in a rapport 4:1 (offered and patented by Inpharma SA, Lugano, Switzerland), 2 g two times/day (6 subjects).
The hematochemistry measurements have been carried out on venous blood coming from antecubital harm vein, after 12 fasting hours after the stabilisation diet period and at the end. Blood has been collected into tubes […] heparin or other anticoagulant, plasma was immediately separated by high-speed centrifugation at 3500×g for twenty minutes. TC, HDL-C, TG, Glucose, and Uric acid have been determined with standardised enzymatic […] methods (Gaddi et al., 2001). LDL-C plasma level has been estimated with the Friedewald's formula [LDL-C=TC-(TG/5+HDL-C)], for TG<350 mg/dL.
Data have been sampled in a specific database and analysed with the help of the SPSS 8.0 statistical software. A normality Shapiro-Wilks test has been carried out on all the tested variables, followed by ANOVA and two-tails t-test for paired samples, when possible, and by a post-hoc Tukey's test. Percentages have been compared with the Fisher's exact test. Correlation degree between baseline plasma lipid levels and reduction obtained with the treatment were estimated with a Pearson's bivariate correlation test followed by linear regression. For all tests a “p” level less than 0.05 has been considered as significant.

For the compound `CC[C@H](CC[C@@H](C)[C@H]1CC[C@H]2[C@@H]3CC=C4C[C@@H](O)CC[C@]4(C)[C@H]3CC[C@]12C)C(C)C` [β-sitosterol], the “Apolipoprotein Al variation” value was −0.1%, the “Apolipoprotein B variation” value was −0.3%, the “High Density Lipoproteins variation” value is reported as “+0.3%” and the “Low Density Lipoproteins variation” value is −4.9%. Besides, the “Total Cholesterol variation” value is −3.2%, the Tryglycerides variation was −0.1% and the “Very Low Density Lipoproteins variation” value was −0.2%.
